Test results reported in the Deep4Chem optical property database.
Several values for one entry are separate records, joined by “and”; a condition that tells them apart may be missing. Identical values can stand only once. One block for each molecule: values may come before it.

Assay: solvent given as SMILES
[1] = in O=P(c1ccccc1)(c1ccccc1)c1ccccc1Oc1ccccc1P(=O)(c1ccccc1)c1ccccc1

SMILES: CC1(C)c2ccccc2N(c2ccc(-c3nc4cccc5c4n3-c3ccccc3C5(C)C)cc2)c2ccccc21
- emission maximum (in Cc1ccccc1): 450 nm
- emission maximum [1]: 449 nm

- emission maximum (in CC#N): 532 nm
SMILES: COC(=O)CC1(C(=O)OC)Oc2c(c(C(C)=O)c3c(c2C(C)=O)OCO3)O1

- emission maximum (in ClCCl): 479 nm
SMILES: CCN(CC)c1ccc2cc(-c3nc4ccccc4n3-c3ccccc3)c(=O)oc2c1

SMILES: COc1ccc2c3ccc(OC)cc3n(-c3ccc(-c4nnc(-c5c(C(C)C)cc(C(C)C)cc5C(C)C)o4)cc3)c2c1
- emission maximum (in Cc1ccccc1): 437 nm

- emission maximum (in ClCCl): 505 nm
SMILES: CCOC(=O)c1ccc(C2CC(c3cccc4ccccc34)=NN2c2ccc(OC)cc2)cc1 (configuration not stated)

- emission maximum (in ClC(Cl)Cl): 414.94 nm
SMILES: CCCCCCn1c2cc(/C=C/c3ccccc3)ccc2c2ccc(/C=C/c3ccccc3)cc21

SMILES: CCOC(=O)C1=C(C)NC2=C(C(=O)c3ccccc32)C1c1ccc(N(C)C)cc1 (configuration not stated)
- emission maximum (in C1CCOC1): 497 nm
- emission maximum (in C1COCCO1): 490 nm
- emission maximum (in CC#N): 542 nm
- emission maximum (in CCO): 559 nm
- emission maximum (in CN(C)C=O): 540 nm
- emission maximum (in CO): 561 nm
- emission maximum (in CS(C)=O): 548 nm
- emission maximum (in ClC(Cl)(Cl)Cl): 475 nm
- emission maximum (in ClC(Cl)Cl): 532 nm
- emission maximum (in ClCCl): 530 nm

- emission maximum (in CC#N): 380 nm
SMILES: C(#Cc1nccnc1C#Cc1ccccc1)c1ccccc1

SMILES: F[B-]1(F)n2c(c3cccc4cccc2c43)=Nc2ccc3ccccc3[n+]21
- emission maximum (in C1CCOC1): 508 nm
- emission maximum (in CC#N): 505 nm
- emission maximum (in CCCCCC): 502 nm
- emission maximum (in Cc1ccccc1): 511 nm
- emission maximum (in ClCCl): 536 nm

- emission maximum (in ClC(Cl)Cl): 362 nm
SMILES: O=C1OC(=O)[C@H]2[C@@H]1[C@@H]1C[C@H]2c2c1c(-c1ccccc1)c1ccccc1c2-c1ccccc1

- emission maximum (in CCOC(C)=O): 386 nm
- emission maximum (in CS(C)=O): 428 nm
- emission maximum (in ClCCl): 404 nm
SMILES: Cc1cc2ccccc2c2c1c1ccccc1n2-c1ccc(N(c2ccccc2)c2ccccc2)cc1

- emission maximum (in CS(C)=O): 567 nm
SMILES: C[N+]1=C(/C=C/C=C2/N(CCCc3ccccc3)c3ccccc3C2(C)C)C(C)(C)c2ccccc21

- emission maximum (in ClCCl): 462 nm
SMILES: COc1cccc2cc(C#N)c(=N)oc12

SMILES: CC(C)(C)c1ccc2c(c1)c1cc(C(C)(C)C)ccc1n2-c1ccc(C(=C(C#N)C#N)c2ccc(-n3c4ccc(C(C)(C)C)cc4c4cc(C(C)(C)C)ccc43)cc2)cc1
- emission maximum (in Cc1ccccc1): 566 nm

- emission maximum (in CC#N): 527 nm
- emission maximum (in CO): 579 nm
SMILES: COc1ccc(-c2c(-c3ccc(OC)cc3)c3c4c(cccc4c2-c2ccccc2)C(=O)c2ccccc2-3)cc1

- emission maximum (in CN(C)C=O): 536 nm
SMILES: O=C1NC(=O)c2ccc3c4ccc5c6c(ccc(c7ccc1c2c73)c64)C(=O)N(c1ccc(Cl)cc1)C5=O

- emission maximum (in CO): 509 nm
SMILES: c1ccc(N(c2ccccc2)c2ccc(-c3ncc(-c4ccc(-c5ccc(-c6cnc(-c7ccc(N(c8ccccc8)c8ccccc8)cc7)s6)s5)s4)s3)cc2)cc1

SMILES: c1cc2ccc3ccc4cc3c2cc1c1ccc2ccc3ccc(cc3c2c1)c1ccc2c(c1)c1cc4ccc1[C@]13OCCO[C@]21OCCO3
- emission maximum (in Cc1ccccc1): 421 nm

- emission maximum (in C1CCCCC1): 463 nm
- emission maximum (in C1CCOC1): 484 nm
- emission maximum (in C1COCCO1): 493 nm
- emission maximum (in CC#N): 492 nm
- emission maximum (in CCCCCC): 464 nm
- emission maximum (in CO): 487 nm
- emission maximum (in ClC(Cl)Cl): 469 nm
SMILES: F[B-]1(F)n2c(nc(Br)c2Br)-c2cccc[n+]21

- emission maximum (in C1CCCCC1): 517 nm
- emission maximum (in C1CCOC1): 537 nm
- emission maximum (in C1COCCO1): 510 nm
- emission maximum (in CC#N): 543 nm and 498 nm
- emission maximum (in CCCCCC): 510 nm and 515 nm
- emission maximum (in CO): 525 nm and 534 nm
- emission maximum (in ClC(Cl)Cl): 520 nm and 528 nm
- emission maximum (in ClCCl): 528 nm
SMILES: F[B-]1(F)n2c(nc(-c3ccccc3)c2-c2ccccc2)-c2cccc[n+]21

- emission maximum (in ClCCl): 538 nm
SMILES: CC1=NN(c2cccc3ccccc23)[B-](F)(F)[n+]2ccccc21

SMILES: CC1(C)c2ccccc2-n2c(-c3ccc(-n4c5ccc(-n6c7ccccc7c7ccccc76)cc5c5cc(-n6c7ccccc7c7ccccc76)ccc54)cc3)nc3cccc1c32
- emission maximum (in Cc1ccccc1): 401 nm
- emission maximum [1]: 409 nm

- emission maximum (in CCCCCC): 551 nm
SMILES: CC(C)[Si](C#Cc1c2nsnc2c(C#C[Si](C(C)C)(C(C)C)C(C)C)c2nc3c(nc12)Cc1ccccc1-3)(C(C)C)C(C)C

SMILES: c1ccc2c(c1)c1ccccc1n2-c1ccc2c(c1)c1ccccc1n2-c1ccc(-n2c3ccccc3c3cc(-n4c5ccccc5c5ccccc54)ccc32)cc1
- emission maximum (in C1CCOC1): 372 nm
- emission maximum (in CC(C)=O): 379 nm
- emission maximum (in Cc1ccccc1): 372 nm
- emission maximum (in ClCCl): 383 nm

- emission maximum (in CCCCCC): 466 nm
SMILES: CC(C)[Si](C#Cc1c2nc3c(nc2c(C#C[Si](C(C)C)(C(C)C)C(C)C)c2nc4c(nc12)C1c2ccccc2C4c2ccccc21)C1c2ccccc2C3c2ccccc21)(C(C)C)C(C)C

- emission maximum (in C1CCOC1): 469 nm
- emission maximum (in CC#N): 469 nm
- emission maximum (in CN(C)C=O): 464 nm
- emission maximum (in ClCCl): 467 nm
- emission maximum (in c1ccccc1): 463 nm
SMILES: CCN1c2ccc(-c3cc(C(F)(F)F)[nH]n3)cc2Sc2cc(-c3cc(C(F)(F)F)[nH]n3)ccc21

SMILES: CCCCC(CC)Cn1c2ccc(C(=C(C#N)C#N)c3ccccc3)cc2c2c(-c3ccc(Br)cc3)c3c(c(-c4ccc(Br)cc4)c21)c1cc(C(=C(C#N)C#N)c2ccccc2)ccc1n3CC(CC)CCCC (configuration not stated)
- emission maximum (in C1CCOC1): 584 nm
- emission maximum (in CC#N): 536 nm
- emission maximum (in CCO): 576 nm
- emission maximum (in CCOC(C)=O): 582 nm
- emission maximum (in CN(C)C=O): 535 nm
- emission maximum (in Cc1ccccc1): 540 nm
- emission maximum (in ClCCl): 597 nm
- emission maximum (in c1ccccc1): 543 nm

SMILES: CCCC1=Cc2nc1ccc1[nH]c(cc1CCC)c1nc(c(N)cc3[nH]c2cc3CCC)C(CCC)=C1
- emission maximum (in Cc1ccccc1): 729 nm

- emission maximum (in ClC(Cl)Cl): 571 nm
SMILES: CC(C)(C)[Si](C)(C)C#Cc1c2c(=O)c3ccccc3c2c(C#C[Si](C)(C)C(C)(C)C)c2c(=O)c3ccccc3c12

- emission maximum (in O): 534 nm
SMILES: CC(=O)OCOC(=O)CN(CC(=O)OCOC(C)=O)c1ccccc1OCCOc1cc(NC(=O)c2ccc3c(c2)C(=O)OC32c3cc(Cl)c(OC(C)=O)cc3Oc3cc(OC(C)=O)c(Cl)cc32)ccc1N(CC(=O)OCOC(C)=O)CC(=O)OCOC(C)=O

SMILES: C#CC1CN2CCC1CC2[C@@H](O)c1ccnc2ccc(OC)cc12 (some centres not stated)
- emission maximum (in C1CCOC1): 361 nm
- emission maximum (in CC#N): 358 nm
- emission maximum (in CCCC#N): 359 nm
- emission maximum (in Cc1ccccc1): 360 nm
- emission maximum (in ClCCl): 363 nm

SMILES: c1ccc(-c2nc(-c3ccccc3)nc(-c3ccc(-n4c5ccccc5c5cc6c(cc54)C(c4ccccc4)(c4ccccc4)c4ccccc4-6)cc3)n2)cc1
- emission maximum (in C1CCOC1): 494.27 nm
- emission maximum (in CCCCCC): 400.55 nm
- emission maximum (in Cc1ccccc1): 442 nm
- emission maximum (in ClCCl): 519.15 nm
- emission maximum [1]: 471 nm

- emission maximum (in C1CCCCC1): 390 nm
SMILES: CCCCCCCCOc1ccc2c3c(c4ccc(OCCCCCCCC)cc4c2c1)C(C)(C)c1ccccc1-3

- emission maximum (in C1CCOC1): 476 nm
SMILES: CN(C)c1ccc(C2=C(c3ccccc3)c3oc4ccccc4[n+]3[B-](F)(F)O2)cc1

- emission maximum (in CS(C)=O): 447 nm
SMILES: c1ccc2c(-c3nc4sc5ccccc5c4s3)cccc2c1

- emission maximum (in CCOC(C)=O): 460 nm
SMILES: CCn1c(-c2ccc(-c3ccc4ccc5cccc6ccc3c4c56)cc2)c(-c2ccc3ccccc3c2)c(-c2ccc3ccccc3c2)c1-c1ccc(-c2ccc3ccc4cccc5ccc2c3c45)cc1

- emission maximum (in ClCCl): 645 nm
SMILES: c1ccc(C2=C3C4=C(C5=[N+]3[B-]3(Oc6ccccc65)Oc5ccccc5-c5c6c(c2n53)C2CCC6CC2)C2CCC4CC2)cc1 (configuration not stated)

- emission maximum (in ClCCl): 563 nm
- emission maximum (in c1ccccc1): 530 nm
SMILES: CCCCN(CCCC)c1ccc(C#Cc2cc(C#Cc3ccc(C#N)cc3)c(C#Cc3ccc(N(CCCC)CCCC)cc3)cc2C#Cc2ccc(C#N)cc2)cc1
